Earlier results in patent US20250228808A1, “COMPOSITIONS AND METHODS FOR THE TREATMENT OF CORONAVIRUS DISEASES” (priority 2022, published 2025).

Columns and labels:
[1] = Lu S C 2000
[2] = entry into the cell
[3] = Sansone 2011

SMILES | half-life in the blood [1] | membrane permeability [2] | fraction of dose excreted by the kidneys [3]
N[C@@H](CCC(=O)N[C@@H](CS)C(=O)NCC(=O)O)C(=O)O [GSH, glutathione] | seconds to minutes | membrane-impermeable | –
CC(=O)N[C@@H](CS)C(=O)O [NAC, N-acetyl cysteine] | – | – | one-third
